Data: ChEMBL document CHEMBL1201862, “PubChem BioAssay data set” (2004)
Calls of active or inactive are those of the source.

Assays:
[1] = biological target: DNA dC->dU-editing enzyme APOBEC-3A (Homo sapiens, UniProt P31941); test: APOBEC3A DNA deaminase inhibitors, dose response, biochemical (AID 504722); type: functional
[2] = biological target: DNA dC->dU-editing enzyme APOBEC-3G (Homo sapiens, UniProt Q9HC16); test: Dose Response confirmation of small molecule APOBEC3G DNA Deaminase Inhibitors via a fluorescence-based single-stranded DNA deaminase assay. [Related pubchem assays (depositor defined):AID493012, AID493028]; type: functional
[3] = biological target: T1, Short transient receptor potential channel 4 (Mus musculus, UniProt Q9QUQ5); test: mouse TRPC4 channel activators, dose response, cell-based, HEK293 TRPC4/mu-opioid, Fluo-4 calcium (AID 434937); type: functional
T1 sequence (Q9QUQ5 whole entry): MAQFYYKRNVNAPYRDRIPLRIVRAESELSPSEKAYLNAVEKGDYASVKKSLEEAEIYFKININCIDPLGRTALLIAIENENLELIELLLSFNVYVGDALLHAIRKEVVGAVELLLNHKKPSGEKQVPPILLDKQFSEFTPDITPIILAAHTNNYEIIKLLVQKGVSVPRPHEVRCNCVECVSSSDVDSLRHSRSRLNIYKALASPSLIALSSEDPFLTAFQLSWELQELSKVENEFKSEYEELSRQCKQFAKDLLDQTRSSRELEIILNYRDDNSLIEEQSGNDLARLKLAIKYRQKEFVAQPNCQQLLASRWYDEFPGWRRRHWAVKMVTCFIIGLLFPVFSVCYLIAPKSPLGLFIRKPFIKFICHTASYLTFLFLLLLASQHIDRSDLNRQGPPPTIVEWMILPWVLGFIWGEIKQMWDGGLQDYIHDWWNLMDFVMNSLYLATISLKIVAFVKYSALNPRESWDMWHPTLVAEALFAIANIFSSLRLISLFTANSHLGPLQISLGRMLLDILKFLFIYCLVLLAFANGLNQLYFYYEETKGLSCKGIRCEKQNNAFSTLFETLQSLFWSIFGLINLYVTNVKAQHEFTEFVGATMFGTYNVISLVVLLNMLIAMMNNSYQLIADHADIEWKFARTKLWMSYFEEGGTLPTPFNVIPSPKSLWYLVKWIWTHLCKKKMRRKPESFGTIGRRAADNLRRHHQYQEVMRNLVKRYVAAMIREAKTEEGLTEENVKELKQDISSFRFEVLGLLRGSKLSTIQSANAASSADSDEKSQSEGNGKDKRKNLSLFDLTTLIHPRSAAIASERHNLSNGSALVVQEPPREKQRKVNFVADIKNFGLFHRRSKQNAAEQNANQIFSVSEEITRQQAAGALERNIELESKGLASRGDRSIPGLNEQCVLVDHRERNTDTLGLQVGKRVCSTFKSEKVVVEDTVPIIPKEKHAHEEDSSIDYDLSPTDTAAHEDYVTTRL

[4] = biological target: T2, Replicative DNA helicase DnaB (Mycobacterium tuberculosis, UniProt P9WMR3); test: DnaB intein splicing inhibitors, dose response, biochemical, cell-free fluorescence (AID 449749); type: functional
T2 sequence (P9WMR3 whole entry): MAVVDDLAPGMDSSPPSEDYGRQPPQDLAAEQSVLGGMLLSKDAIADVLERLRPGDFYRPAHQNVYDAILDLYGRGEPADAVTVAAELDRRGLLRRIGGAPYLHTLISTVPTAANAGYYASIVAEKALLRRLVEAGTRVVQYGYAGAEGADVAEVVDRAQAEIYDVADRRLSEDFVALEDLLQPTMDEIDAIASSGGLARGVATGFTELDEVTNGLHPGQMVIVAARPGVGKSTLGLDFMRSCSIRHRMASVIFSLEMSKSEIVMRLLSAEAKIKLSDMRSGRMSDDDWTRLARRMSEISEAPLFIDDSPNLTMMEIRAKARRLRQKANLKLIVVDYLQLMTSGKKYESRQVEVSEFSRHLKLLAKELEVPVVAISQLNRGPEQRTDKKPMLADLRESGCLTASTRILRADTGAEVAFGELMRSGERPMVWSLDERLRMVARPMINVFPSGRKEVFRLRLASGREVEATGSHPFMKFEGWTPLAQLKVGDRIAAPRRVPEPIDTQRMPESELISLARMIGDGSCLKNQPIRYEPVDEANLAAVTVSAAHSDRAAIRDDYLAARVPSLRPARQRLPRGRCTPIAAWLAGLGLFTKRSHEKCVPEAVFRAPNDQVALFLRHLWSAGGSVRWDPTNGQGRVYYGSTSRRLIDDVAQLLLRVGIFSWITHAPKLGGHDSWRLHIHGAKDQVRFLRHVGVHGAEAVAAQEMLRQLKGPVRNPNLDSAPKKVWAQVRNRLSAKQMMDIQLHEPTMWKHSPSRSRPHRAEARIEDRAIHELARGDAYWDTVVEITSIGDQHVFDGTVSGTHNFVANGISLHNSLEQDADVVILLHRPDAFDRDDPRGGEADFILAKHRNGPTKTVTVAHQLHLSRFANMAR

[5] = biological target: T3, Protein RecA (Mycobacterium tuberculosis, UniProt P9WHJ3); test: Fluorescence Cell-Free Homogeneous Dose Retest to Identify Inhibitors of RecA-Intein Splicing Activity. [Related pubchem assays (depositor defined):AID2097, AID2223, AID489010, AID492950]; type: functional
T3 sequence (P9WHJ3 whole entry): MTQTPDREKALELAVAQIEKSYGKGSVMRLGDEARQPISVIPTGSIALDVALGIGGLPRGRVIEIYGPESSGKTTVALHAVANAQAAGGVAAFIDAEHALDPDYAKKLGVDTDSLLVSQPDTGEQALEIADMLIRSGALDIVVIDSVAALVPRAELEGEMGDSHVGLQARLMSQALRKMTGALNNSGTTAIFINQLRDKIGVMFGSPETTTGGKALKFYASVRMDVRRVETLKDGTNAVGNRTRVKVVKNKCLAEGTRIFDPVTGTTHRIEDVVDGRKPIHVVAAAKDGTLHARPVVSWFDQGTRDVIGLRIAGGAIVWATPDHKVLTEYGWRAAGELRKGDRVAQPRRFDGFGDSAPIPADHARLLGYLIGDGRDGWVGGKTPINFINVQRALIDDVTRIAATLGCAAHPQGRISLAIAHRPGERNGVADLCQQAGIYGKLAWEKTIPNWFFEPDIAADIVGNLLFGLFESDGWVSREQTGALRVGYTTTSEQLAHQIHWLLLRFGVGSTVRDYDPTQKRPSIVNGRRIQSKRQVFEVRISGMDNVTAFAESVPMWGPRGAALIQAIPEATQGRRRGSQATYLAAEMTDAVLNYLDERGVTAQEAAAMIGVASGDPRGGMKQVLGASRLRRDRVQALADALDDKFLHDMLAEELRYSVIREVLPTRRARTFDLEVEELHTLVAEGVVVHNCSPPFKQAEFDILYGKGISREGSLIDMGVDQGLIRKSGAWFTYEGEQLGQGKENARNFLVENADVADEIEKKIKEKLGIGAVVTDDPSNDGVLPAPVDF

[6] = biological target: T1, Short transient receptor potential channel 4; test: mouse TRPC4 channel inhibitors, dose response, cell-based, HEK293 TRPC4/mu-opioid, Fluo-4 calcium (AID 434942); type: functional;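 further: potency of inhibitors blocking the TRPC4 calcium response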
[7] = biological target: T4, Corticotropin-releasing factor receptor 2/Corticotropin-releasing factor-binding protein (Homo sapiens, UniProt P24387+Q13324); test: Dose Response confirmation of uHTS hits for small molecule antagonists of the CRF-binding protein and CRF-R2 receptor complex.; type: functional; settings: read-out: IC50_Mean
T4 sequence (Q13324 whole entry): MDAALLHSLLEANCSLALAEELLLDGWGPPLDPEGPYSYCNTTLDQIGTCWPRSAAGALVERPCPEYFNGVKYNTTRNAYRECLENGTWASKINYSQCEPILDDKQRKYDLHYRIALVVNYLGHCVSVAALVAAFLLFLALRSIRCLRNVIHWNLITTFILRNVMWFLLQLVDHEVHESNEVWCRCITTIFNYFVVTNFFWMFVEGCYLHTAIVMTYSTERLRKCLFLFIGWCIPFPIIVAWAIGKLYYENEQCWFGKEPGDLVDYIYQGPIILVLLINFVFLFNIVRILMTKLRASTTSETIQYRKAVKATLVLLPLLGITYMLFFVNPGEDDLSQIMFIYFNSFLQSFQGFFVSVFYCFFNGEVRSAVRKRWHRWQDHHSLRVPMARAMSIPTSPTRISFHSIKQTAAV
T4 sequence (P24387 whole entry): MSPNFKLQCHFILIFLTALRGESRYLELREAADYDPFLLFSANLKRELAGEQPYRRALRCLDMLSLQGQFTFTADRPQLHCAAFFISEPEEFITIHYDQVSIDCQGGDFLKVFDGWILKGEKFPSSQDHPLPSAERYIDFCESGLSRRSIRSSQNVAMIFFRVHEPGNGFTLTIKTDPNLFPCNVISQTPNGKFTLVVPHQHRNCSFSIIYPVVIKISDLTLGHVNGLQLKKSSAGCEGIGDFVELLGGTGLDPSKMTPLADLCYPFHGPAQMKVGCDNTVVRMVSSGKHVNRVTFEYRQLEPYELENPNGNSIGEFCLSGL

[8] = biological target: T4, Corticotropin-releasing factor receptor 2/Corticotropin-releasing factor-binding protein; test: activators of CRF receptor 2 with binding protein – uHTS hits, confirmation (AID 602473); type: functional; settings: read-out: EC50_Mean
[9] = CRF-BP/CRF-R2 complex antagonists, dose response, cell-based, uHTS hits, 384-well (AID 651639); type: functional, Homo sapiens; settings: read-out: IC50_Mean
[10] = biological target: SUMO-activating enzyme (Homo sapiens, UniProt Q9UBT2); test: inhibitors of in vitro SUMOylation cascade, primary screen, biochemical, HTRF, uHTS (AID 2006); type: protein-complex assay
[11] = biological target: T5, Mannose-6-phosphate isomerase (Homo sapiens, UniProt P34949); test: human PMI inhibitors, high substrate, primary screen, biochemical, fluorescence intensity, high mannose 6-phosphate (AID 1220)
T5 sequence (P34949 whole entry): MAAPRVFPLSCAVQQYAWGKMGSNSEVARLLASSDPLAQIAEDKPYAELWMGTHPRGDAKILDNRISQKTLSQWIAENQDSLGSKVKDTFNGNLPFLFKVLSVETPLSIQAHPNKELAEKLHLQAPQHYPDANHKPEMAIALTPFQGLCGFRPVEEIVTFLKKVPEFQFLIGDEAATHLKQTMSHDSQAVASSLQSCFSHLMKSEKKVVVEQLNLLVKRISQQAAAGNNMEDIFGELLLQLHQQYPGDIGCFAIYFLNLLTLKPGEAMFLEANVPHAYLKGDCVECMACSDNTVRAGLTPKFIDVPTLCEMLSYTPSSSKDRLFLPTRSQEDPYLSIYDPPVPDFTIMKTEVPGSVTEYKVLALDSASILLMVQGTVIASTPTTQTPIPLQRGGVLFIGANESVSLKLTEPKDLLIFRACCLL

[12] = biological target: T6, Rac GTPase-activating protein 1 (Homo sapiens, UniProt Q9H0H5); test: MgcRacGAP GTPase-activating activity inhibitors, confirmation, biochemical, ADP Hunter fluorescence, primary and confirmatory (AID 624330); type: functional
T6 sequence (Q9H0H5 whole entry): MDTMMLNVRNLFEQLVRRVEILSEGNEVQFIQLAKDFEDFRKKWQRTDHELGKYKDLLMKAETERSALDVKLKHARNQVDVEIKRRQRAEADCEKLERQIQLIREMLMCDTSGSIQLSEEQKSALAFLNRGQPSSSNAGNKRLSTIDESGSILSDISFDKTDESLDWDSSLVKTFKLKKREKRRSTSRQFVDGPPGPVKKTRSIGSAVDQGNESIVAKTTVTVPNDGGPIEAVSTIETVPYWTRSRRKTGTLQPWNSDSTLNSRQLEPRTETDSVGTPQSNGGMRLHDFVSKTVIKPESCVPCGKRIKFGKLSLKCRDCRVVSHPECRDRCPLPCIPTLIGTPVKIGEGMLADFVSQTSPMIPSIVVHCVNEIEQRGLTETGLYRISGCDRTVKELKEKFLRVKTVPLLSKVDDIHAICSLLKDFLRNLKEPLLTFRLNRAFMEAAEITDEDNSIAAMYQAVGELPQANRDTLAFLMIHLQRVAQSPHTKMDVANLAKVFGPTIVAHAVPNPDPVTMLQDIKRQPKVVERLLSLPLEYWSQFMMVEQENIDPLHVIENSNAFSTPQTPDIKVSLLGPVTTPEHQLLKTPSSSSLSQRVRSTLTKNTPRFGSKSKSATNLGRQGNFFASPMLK

DNA dC->dU-editing enzyme APOBEC-3G, sequence (Q9HC16 whole entry): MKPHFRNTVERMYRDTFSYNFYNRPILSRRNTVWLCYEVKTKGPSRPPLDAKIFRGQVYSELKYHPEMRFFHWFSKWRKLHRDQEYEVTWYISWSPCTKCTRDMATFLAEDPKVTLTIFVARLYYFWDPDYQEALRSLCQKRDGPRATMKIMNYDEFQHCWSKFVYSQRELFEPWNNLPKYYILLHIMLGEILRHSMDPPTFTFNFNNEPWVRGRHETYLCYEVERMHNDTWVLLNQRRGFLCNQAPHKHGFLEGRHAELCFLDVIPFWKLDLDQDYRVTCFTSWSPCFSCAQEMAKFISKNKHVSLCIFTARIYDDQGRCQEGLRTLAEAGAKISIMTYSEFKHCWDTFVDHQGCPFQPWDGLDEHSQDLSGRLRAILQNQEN
SUMO-activating enzyme, sequence (Q9UBE0 whole entry): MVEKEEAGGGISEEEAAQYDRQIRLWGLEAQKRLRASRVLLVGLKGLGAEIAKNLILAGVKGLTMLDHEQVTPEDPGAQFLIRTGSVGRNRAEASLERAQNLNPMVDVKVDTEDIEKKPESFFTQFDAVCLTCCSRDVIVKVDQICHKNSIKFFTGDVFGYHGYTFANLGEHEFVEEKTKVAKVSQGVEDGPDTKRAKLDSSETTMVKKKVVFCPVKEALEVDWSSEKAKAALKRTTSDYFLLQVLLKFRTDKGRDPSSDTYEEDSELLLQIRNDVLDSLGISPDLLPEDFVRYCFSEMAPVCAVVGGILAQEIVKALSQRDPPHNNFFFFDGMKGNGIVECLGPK
SUMO-activating enzyme, sequence (Q9UBT2 whole entry): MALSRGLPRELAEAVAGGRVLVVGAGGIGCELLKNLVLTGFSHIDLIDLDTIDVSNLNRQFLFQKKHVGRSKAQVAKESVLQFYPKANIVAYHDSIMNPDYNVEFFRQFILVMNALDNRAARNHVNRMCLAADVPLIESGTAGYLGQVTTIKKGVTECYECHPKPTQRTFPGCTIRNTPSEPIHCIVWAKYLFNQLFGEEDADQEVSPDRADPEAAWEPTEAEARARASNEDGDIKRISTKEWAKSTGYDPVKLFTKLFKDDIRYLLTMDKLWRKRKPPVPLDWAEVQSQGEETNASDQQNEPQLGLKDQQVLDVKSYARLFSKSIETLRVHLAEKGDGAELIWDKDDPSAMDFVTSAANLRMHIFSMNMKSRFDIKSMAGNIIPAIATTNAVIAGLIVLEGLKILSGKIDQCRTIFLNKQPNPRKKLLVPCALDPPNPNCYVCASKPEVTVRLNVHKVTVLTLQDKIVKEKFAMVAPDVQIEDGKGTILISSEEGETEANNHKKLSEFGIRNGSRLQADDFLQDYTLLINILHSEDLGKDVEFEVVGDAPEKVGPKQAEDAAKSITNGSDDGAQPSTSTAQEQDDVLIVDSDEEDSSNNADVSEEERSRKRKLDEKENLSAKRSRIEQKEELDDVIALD
DNA dC->dU-editing enzyme APOBEC-3A, sequence (P31941 whole entry): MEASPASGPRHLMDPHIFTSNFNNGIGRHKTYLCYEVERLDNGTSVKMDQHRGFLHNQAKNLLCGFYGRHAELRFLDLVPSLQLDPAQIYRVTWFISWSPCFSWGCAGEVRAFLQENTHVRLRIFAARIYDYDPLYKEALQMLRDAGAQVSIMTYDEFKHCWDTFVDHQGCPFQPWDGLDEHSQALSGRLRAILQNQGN

With `Cc1ccccc1C(=O)NNC(=S)NC(=O)COc1ccccc1` the IC50 [1] was > 100 µM (inactive), the IC50 [2] was 12.7 µM (active) and the EC50 [3] was 5.31 µM (active). For the same compound, the AC50 [4] was 29 µM (active) and the EC50 [5] was 17.7 µM (active).

With `COC(=O)CSc1nn(-c2ccc(F)cc2)c(=S)s1` the EC50 [6] was 6.68 µM (active), the IC50 [7] was 4.86 µM (active) and the EC50 [8] was > 53 µM (inactive). The IC50 [9] was > 20 µM (inactive).

With `COc1ccc2c(c1)-c1nc(/N=C/c3cccc(OC)c3O)sc1CC2` the IC50 [10] was > 100 µM (inactive), the IC50 [11] was > 50 µM (not active) and the IC50 [12] was 23.7 µM (active).

For `CCOC(=O)C1(Cc2ccccc2)CCN(CC2CC=CCC2)CC1` (stereo not drawn), the EC50 [6] was 13.3 µM (active).
